Laboratory results published in patent US10251869B2, “Compositions and methods of inhibiting metallo-β-lactamases” (priority 2014, dated 2019).
In brackets after ≈: the same amount, converted by molar mass. Like-named read-outs stand apart in the source and are kept apart here.

Columns and labels:
VIM-2 [1] = target: T1, VIM-2 (Escherichia coli, UniProt Q5U7L7); assay: Cefepime and ceftazidime hydrolysis in periplasm preparations, VIM-2; format: biochemical, P. aeruginosa; conditions: 800 μM cefepime or 400 μM ceftazidime, 25° C.
T1 construct: expressed in transfected cells; host or cells: E. coli DH10B carrying pBC SK(-) blaVIM-2; periplasmic extract by osmotic shock with chloroform
Protocol: (§1) Additionally, cefepime and ceftazidime hydrolysis were measured using periplasm preparations, as previously described. Briefly, periplasmic preparations of E. coli DH10B pBC SK (−) harboring blaVIM-2 or blaVIM-24 were obtained by osmotic shock with chloroform, and MBL production assessed by immunoblotting. Initial velocities of hydrolysis at high substrate concentrations (800 μM for cefepime and 400 μM for ceftazidime) were measured using equal amounts of both β-lactamases in 15 mM HEPES pH 7.5, 200 mM NaCl, supplemented with 50 μM ZnSO4, at 25° C.

[2] = test system: E. coli DH10B pBCSK(−) producing R228K variant; assay: MIC by agar dilution, E. coli DH10B producing VIM-2 R228K; format: cell-based; conditions: Escherichia coli
Protocol: (§2) E. coli DH10B (Invitrogen, Carlsbad, Calif.) was used as a host strain for pBCSK (−) blaVIM-2, and to obtain a mutant library at position 228 by site-saturation mutagenesis, using the QuickChange XL Site-directed Mutagenesis Kit (Stratagene). Briefly, primers that capture all 19 variants at MBL position 228 were designed and PCR mutagenic reactions were conducted using pBCSK (−) blaVIM-2 as a template, and transformed into E. coli DH10B. Single colonies were selected for plasmid purification, and successful mutagenesis was verified by complete DNA sequencing.
(§3) The effect of Zn^2+ availability was also tested by agar dilution using MH supplemented with 250 μM ZnSO4 or 5 μM EDTA. Reported values are the mode of at least 3 biological replicates.

[3] = test system: E. coli DH10B pBCSK(−) producing VIM-2 (228R); assay: MIC by agar dilution, E. coli DH10B producing VIM-2; format: cell-based
Excerpt: A forward primer containing the SacI restriction site and a reverse primer with the BamHI restriction site were used to amplify blaVIM-2 including the pET24a(+) ribosomal binding site, using plasmid pET-24a(+)-blaVIM-2 as template. The product was then subcloned into phagemid pBCSK (−) (Agilent (Santa Clara, Calif.)) using the above restriction sites, and thus placing the blaVIM-2 open reading frame under control of the lac promoter, to yield phagemid pBCSK (−) blaVIM-2.
as §2, §3

[4] = test system: E. coli DH10B pBCSK(−) producing VIM-24 (R228L); assay: MIC by agar dilution, E. coli DH10B producing VIM-24; format: cell-based; conditions: Escherichia coli
Protocol: as §2, §3

E. coli pBC SK(−) = assay: MIC by agar dilution, E. coli DH10B host with empty phagemid; format: cell-based; conditions: Escherichia coli
Protocol: as §2, §3

[5] = test system: E. coli DH10B pBCSK(−) producing R228P variant; assay: MIC by agar dilution, E. coli DH10B producing VIM-2 R228P; format: cell-based; conditions: Escherichia coli
Protocol: as §2, §3

[6] = test system: E. coli DH10B pBCSK(−) producing R228M variant; assay: MIC by agar dilution, E. coli DH10B producing VIM-2 R228M; format: cell-based; conditions: Escherichia coli
Protocol: as §2, §3

VIM-24 [7] = target: T2, VIM-24 (Escherichia coli, UniProt Q5U7L7, R205L); assay: Cefepime and ceftazidime hydrolysis in periplasm preparations, VIM-24; format: biochemical; conditions: 800 μM cefepime or 400 μM ceftazidime, 25° C.
T2 construct: which corresponds to cleavage after residues 20 (plus an additional Met residue on the N-terminus); made in house; host or cells: E. coli BL21(DE3) pLys, plasmid pET-24a(+)-blaVIM-24-S21
Protocol: as §1

[8] = test system: E. coli DH10B pBCSK(−) producing R228Q variant; assay: MIC by agar dilution, E. coli DH10B producing VIM-2 R228Q; format: cell-based; conditions: Escherichia coli
Protocol: as §2, §3

[9] = test system: E. coli DH10B pBCSK(−) producing R228Y variant; assay: MIC by agar dilution, E. coli DH10B producing VIM-2 R228Y; format: cell-based; conditions: Escherichia coli
Protocol: as §2, §3

MBLs = assay: Assays in solution after prolonged exposure to oxidative conditions; format: biochemical; conditions: data not shown
VIM-2 [10] = target: T3, VIM-2 (Pseudomonas aeruginosa, UniProt Q9K2N0); assay: BTZ inhibition kinetics of nitrocefin hydrolysis by VIM-2; format: biochemical, P. aeruginosa
T3 construct: made in house; host or cells: E. coli BL21(DE3) pLys, plasmid pET-24a(+)-blaVIM-2-S21
Excerpt: (§4) Analysis of BTZ inhibition kinetics. Models involving one, or two-step slow binding were considered to analyze BTZ inhibition of NFC hydrolysis by VIM-2 and VIM-24 (Scheme 1).
(§5) Here E represents the free enzyme, and I the free inhibitor, EI is the final enzyme-inhibitor complex for a single step slow binding mechanism, and E*I is the enzyme-inhibitor complex formed after conformational changes in a two-step slow binding mechanism. Therefore, the dissociation constant for the EI complex (Ki), also called the inhibitor constant, is defined as Ki=k−1/k1; the dissociation constant for the E*I complex (Ki′) is defined as Ki′=k−2/k2, and the overall dissociation constant for the two-step mechanism (Ki*) is defined as Ki*=Ki/(1+([…])).
(§6) The Ki for each inhibitor was determined by direct competition assays under steady-state conditions. The initial velocity was measured in the presence of a constant concentration of enzyme (3 nM for VIM-2 and 4 nM for VIM-24) with increasing concentrations of inhibitor (5-60 μM) against a fixed concentration (5 x KM) of the indicator substrate, NCF, as previously described (42-44). The reactions were started by addition of VIM-2 or VIM-24 to substrate or to mixtures of substrate and inhibitor. Data were linearized by plotting inverse initial steady-state velocities (1/v0) against inhibitor concentration (I). Ki (observed) was determined by dividing the value for the y intercept by the slope of the line. Ki determinations were corrected to account for the affinity of NCF for the β-lactamase according to equation 3.
(§7) Measurements of association rate constants for inhibitor binding were carried out at 25° C. in 10 mM HEPES at pH 7.5 supplemented with 200 mM NaCl, 50 μM […] and 50 μg/ml BSA, in the presence of several concentrations of each compound. Reactions were then initiated by the addition of β-lactamase (3 nM VIM-2 or 4 nM VIM-24) to a mixture of 50 μM NCF and each BTZ without pre-incubation. Inhibitor association rate constants were estimated from linear extrapolation of the observed rate constant for inhibition (kobs), which was obtained by fitting progress curves of NFC hydrolysis to Eq. 4:
(§8) As previously described, the linear dependence of kobs vs. [I] at limiting I concentration approximates second-order rate constant k2/Ki. The observed second-order rate constant also includes an adjustment for competition between inhibitor and substrate binding (Eq. 5).
(§9) Also, vs calculated from the progress curves of NCF hydrolysis for each concentration of inhibitor were used to determine Ki*, according to the relationship shown in equation 6 (5). The value reported is the mean of three velocities±SD.
(§10) To further test the time-dependent inhibition mechanism of inhibitor binding, assays using dilutions of pre-formed complexes were performed. For these experiments, 1 μM of enzyme was incubated with varying concentrations of the inhibitor which allowed for complete inactivation of the enzyme during the 5 min incubation at 25° C. The reactions were then diluted 2,000-fold in 10 mM HEPES at pH 7.5 supplemented with 200 mM NaCl, 50 μM […] and 50 μg/ml BSA, which contained 50 μM NCF. Reactivation of the enzyme based on NCF hydrolysis was monitored over time. Control reaction with the free enzyme was performed in the same fashion.

VIM-24 [11] = target: T2, VIM-24; assay: BTZ inhibition kinetics of nitrocefin hydrolysis by VIM-24; format: biochemical
Excerpt: as §4, §5, §6, §7, §8, §9, §10

[12] = MHA supplemented with 5 μM EDTA
[13] = MHA supplemented with 250 μM Zn2+
[14] = Escherichia coli, MHA supplemented with 5 μM EDTA, read-out: MIC
[15] = Escherichia coli, MHA supplemented with 250 μM Zn2+, read-out: MIC
[16] = MHA supplemented with 5 μM EDTA, read-out: MIC
[17] = MHA supplemented with 250 μM Zn2+, read-out: MIC
[18] = rate constant for breakdown of E*I
[19] = rate constant for formation of E*I

Structure (SMILES) | rate of hydrolysis (initial velocity) in periplasma (VIM-2 [1]) | MIC ([2]; MHA) [mg/L] | MIC [2, 12] [mg/L] | MIC [2, 13] [mg/L] | MIC ([3]; Escherichia coli, MHA) [mg/L] | MIC [3, 14] [mg/L] | MIC [3, 15] [mg/L] | MIC ([4]; MHA) [mg/L] | MIC [4, 16] [mg/L] | MIC [4, 17] [mg/L] | MIC (E. coli pBC SK(−); MHA) [mg/L] | MIC (E. coli pBC SK(−); [12]) [mg/L] | MIC (E. coli pBC SK(−); [13]) [mg/L] | MIC ([5]; MHA) [mg/L] | MIC [5, 12] [mg/L] | MIC [5, 13] [mg/L] | MIC ([6]; MHA) [mg/L] | MIC [6, 12] [mg/L] | MIC [6, 13] [mg/L] | rate of hydrolysis (initial velocity) in periplasma (VIM-24 [7]) [M/s] | also measured
CO/N=C(\C(=O)N[C@@H]1C(=O)N2C(C(=O)[O-])=C(C[N+]3(C)CCCC3)CS[C@H]12)c1csc(N)n1 [Cefepime] | 2.9×10^−7 M^s−1 | 0.5 (≈ 1.04 µM) | ≤ 0.25 | ≤ 0.25 | ≤ 0.5 | 0.5 (≈ 1.04 µM) | 0.5 (≈ 1.04 µM) | 4 (≈ 8.32 µM) | 4 (≈ 8.32 µM) | 4 (≈ 8.32 µM) | 0.03 (≈ 0.0624 µM) | ≤ 0.25 | ≤ 0.25 | 0.25 (≈ 0.52 µM) | ≤ 0.25 | 0.5 (≈ 1.04 µM) | 2 (≈ 4.16 µM) | 4 (≈ 8.32 µM) | 2 (≈ 4.16 µM) | 5.3e-07 | MIC ([3]; MHA): 0.5 mg/L (≈ 1.04 µM); MIC ([8]; MHA): 16 mg/L (≈ 33.3 µM); MIC [8, 12]: 16 mg/L (≈ 33.3 µM); MIC [8, 13]: 32 mg/L (≈ 66.6 µM); MIC ([9]; MHA): 8 mg/L (≈ 16.6 µM); MIC [9, 12]: 8 mg/L (≈ 16.6 µM); MIC [9, 13]: 8 mg/L (≈ 16.6 µM)
CC(C)(O/N=C(\C(=O)N[C@@H]1C(=O)N2C(C(=O)[O-])=C(C[n+]3ccccc3)CS[C@H]12)c1csc(N)n1)C(=O)O [Ceftazidime] | measurable rates of hydrolysis were not obtained | 1 (≈ 1.83 µM) | ≤ 1 | ≤ 1 | 16 (≈ 29.3 µM) | 16 (≈ 29.3 µM) | 32 (≈ 58.5 µM) | 64 (≈ 117 µM) | 32 (≈ 58.5 µM) | 128 (≈ 234 µM) | 0.06 (≈ 0.11 µM) | ≤ 1 | ≤ 1 | 1 (≈ 1.83 µM) | ≤ 1 | 4 (≈ 7.32 µM) | 128 (≈ 234 µM) | 64 (≈ 117 µM) | 256 (≈ 468 µM) | 4e-07 | MIC ([8]; MHA): 128 mg/L (≈ 234 µM); MIC [8, 12]: 128 mg/L (≈ 234 µM); MIC [8, 13]: 512 mg/L (≈ 937 µM); MIC ([9]; MHA): 64 mg/L (≈ 117 µM); MIC [9, 12]: 64 mg/L (≈ 117 µM); MIC [9, 13]: 128 mg/L (≈ 234 µM)
O=C(O)[C@@H]1CS[C@H]2CS[C@H](CS)N21 [L-CS319] | – | – | – | – | – | – | – | – | – | – | – | – | – | – | – | – | – | – | – | – | inhibitory activity towards MBLs after prolonged exposure to oxidative conditions (MBLs): abolishes the inhibitory activity; Ki (VIM-2 [10]; initial complex EI, NCF as reporter substrate): 3.7 ± 0.3 µM; Ki (VIM-2 [10]; overall dissociation constant of two-step mechanism (E*I)): 0.04 ± 0.01 µM; k−2 (VIM-2 [10]; [18]): 0.0003 ± 1 × 10^−4 s^−1; k2 (VIM-2 [10]; [19]): 0.03 ± 1 × 10^−3 s^−1; k−2 (VIM-24 [11]; [18]): 0.001 ± 1 × 10^−3 s^−1; k2 (VIM-24 [11]; [19]): 0.06 ± 2 × 10^−3 s−1
